Laboratory results as given in patent US10294488B2, “Herbicide-metabolizing cytochrome P450 monooxygenases” (BASF SE, priority 2012, dated 2019).

Legend:
AmCYP03_1 (Seq ID 4) = experiment: Herbicide degradation in transgenic yeast cells expressing cytochrome P450 AmCYP03_1; assay type: in vitro ADME, Alopecurus myosuroides; conditions: transgenic yeast cells (S. cerevisiae BJ5459) expressing AmCYP03_1, Seq ID 4, recovery of herbicide in reference to control, UPLC-MS/MS
Text: (§1) The cDNA of CYP450 monooxygenase genes were synthesized with an optimized codon usage for yeast, cloned via uniqueBamHI-SalI restriction sites in the low copy pESC-ura expression vector (Agilent Technologies). Constructs were transformed into S. cerevisiae wild type strain BJ5459 (MATa ura3-5 trp lys2-801 leu2Δ1 his3Δ200 pep4Δ::HIS3 prb1Δ1.6R can1 GAL cir^+; ATCC 208284) using a Yeast Maker Transformation System from Clontech and verified by colony PCR. Positive clones were selected on minimal synthetic-defined media (SD) supplemented with appropriate dropout solution. The strain had no obvious phenotypes. Cells were induced in SG-Ura medium (same composition as SD but with galactose instead of glucose) for 24 h (Pompon et al., Methods in Enzymology 272:51-64 (1996); Urban et al., Eur. J. Biochem. 222:[…] (1994)). Optimal heterologous protein expression was assayed using Western Blot analysis.
(§2) 96 deep well growth plates (STARLAB GmbH) charged with 700 μL SDA medium are inoculated with the respective yeast strains from cryostock and incubated at 30° C., 400 rpm. After 48 h, an aliquot is transferred into a new plate with fresh SDA medium 400 rpm. After 4 h the cultures are spun down, the supernatant discarded and the pellets resuspended in 700 μL pre-warmed SGA media to induce protein expression at 30° C. and 400 rpm. After an incubation time of 24 h, 7 μL herbicide solution (500 μM DMSO stock solution) or solvent control is added to the yeast culture incubated for additional 24 h. The herbicide conversion is stopped by adding 700 μL acetonitrile followed by ultrasonification. The homogenate is prepared for UPLC-MS/MS analysis. The degradation rate was calculated by the determination of the recovery of the herbicide in reference to the control.

AmCYP03b (Seq ID 6) = experiment: Herbicide degradation in transgenic yeast cells expressing cytochrome P450 AmCYP03b; assay type: in vitro ADME, Alopecurus myosuroides; conditions: transgenic yeast cells (S. cerevisiae BJ5459) expressing AmCYP03b, recovery of herbicide in reference to control, UPLC-MS/MS
Text: as §1, §2

AmCYP04 (Seq ID 27) = experiment: Herbicide degradation in transgenic yeast cells expressing cytochrome P450 AmCYP04; assay type: in vitro ADME, Alopecurus myosuroides; conditions: transgenic yeast cells (S. cerevisiae BJ5459) expressing AmCYP04, Seq ID 27, recovery of herbicide in reference to control, UPLC-MS/MS
Text: as §1, §2

AmCYP12_1 (Seq ID 45) = experiment: Herbicide degradation in transgenic yeast cells expressing cytochrome P450 AmCYP12_1; assay type: in vitro ADME, Alopecurus myosuroides; conditions: transgenic yeast cells (S. cerevisiae BJ5459) expressing AmCYP12_1, Seq ID 45, recovery of herbicide in reference to control, UPLC-MS/MS
Text: as §1, §2

AmCYP01 (Seq ID 2) = experiment: Herbicide degradation in transgenic yeast cells expressing cytochrome P450 AmCYP01; assay type: in vitro ADME, Alopecurus myosuroides; conditions: transgenic yeast cells (S. cerevisiae BJ5459) expressing AmCYP01, Seq ID 2, recovery of herbicide in reference to control, UPLC-MS/MS
Text: as §1, §2

[1] = tested on: transgenic plants expressing Am_CYP03 (SEQ ID 4); experiment: Greenhouse herbicide tolerance of transgenic plants expressing Am_CYP03 (FIG. 1); assay type: in vivo, Arabidopsis thaliana; conditions: plants expressing Am_CYP03 (SEQ ID 4) vs wildtype, different application rates (g/ha)
Protocol: (§3) Transgenic Arabidopsis thaliana plants were assayed for improved tolerance to saflufenacil, 1,5-dimethyl-6-thioxo-3-(2,2,7-trifluoro-3-oxo-4-(prop-2-ynyl)-3,4-dihydro-2H-benzo[b][1,4]oxazin-6-yl)-1,3,5-triazinane-2,4-dione (CAS 1258836-72-4), chlorotoluron, pendimethalin, flumioxazin, butafenacil, acifluorfen, lactofen, bifenox, diuron, sulfentrazon, tepraloxydim, coumarone-derivative herbicides, azine-derivative herbicides in 48-well plates. Therefore, T2 seeds are surface sterilized by stirring for 5 min in ethanol+water (70+30 by volume), rinsing one time with ethanol+water (70+30 by volume) and two times with sterile, deionized water. The seeds are resuspended in 0.1% agar dissolved in water (w/v) Four to five seeds per well are plated on solid nutrient medium consisting of half-strength murashige skoog nutrient solution, pH 5.8 (Murashige and Skoog (1962) Physiologia Plantarum 15: 473-497). Compounds are dissolved in dimethylsulfoxid (DMSO) and added to the medium prior solidification (final DMSO concentration 0.1%). Multi well plates are incubated in a growth chamber at 22° C., 75% relative humidity and 110 μmol Phot*m^2*s^−1 with 14:10 h light: dark photoperiod. Growth inhibition is evaluated seven to ten days after seeding in comparison to wild type plants. Additionally, transgenic T1 Arabidopsis plants were tested for improved tolerance to herbicides in greenhouse studies with the following herbicides: saflufenacil, 1,5-dimethyl-6-thioxo-3-(2,2,7-trifluoro-3-oxo-4-(prop-2-ynyl)-3,4-dihydro-2H-benzo[b][1,4]oxazin-6-yl)-1,3,5-triazinane-2,4-dione (CAS 1258836-72-4), chlorotoluron, pendimethalin, flumioxazin, butafenacil, acifluorfen, lactofen, bifenox, diuron, sulfentrazone, tepraloxydim, coumarone-derivative herbicides, azine-derivative herbicides.

[2] = tested on: transgenic plants expressing Am_CYP04 (SEQ ID 27); experiment: Greenhouse herbicide tolerance of transgenic plants expressing Am_CYP04 (FIG. 2); assay type: in vivo, Arabidopsis thaliana; conditions: plants expressing Am_CYP04 (SEQ ID 27) vs wildtype, different application rates (g/ha)
Protocol: as §3

| Structure (SMILES) | Degradation rate of listed herbicidal compounds within 24 h (AmCYP03_1 (Seq ID 4)) | Degradation rate of listed herbicidal compounds within 24 h (AmCYP03b (Seq ID 6)) | Degradation rate of listed herbicidal compounds within 24 h (AmCYP04 (Seq ID 27)) | Degradation rate of listed herbicidal compounds within 24 h (AmCYP12_1 (Seq ID 45)) | Degradation rate of listed herbicidal compounds within 24 h (AmCYP01 (Seq ID 2)) | Phenotype (injury) of transgenic plants compared to non-transgenic plants [1] | Phenotype (injury) of transgenic plants compared to non-transgenic plants [2] |
| --- | --- | --- | --- | --- | --- | --- | --- |
| C#CCN1C(=O)C(F)(F)Oc2cc(F)c(-n3c(=O)n(C)c(=S)n(C)c3=O)cc21 [1,5-dimethyl-6-thioxo-3-(2,2,7-trifluoro-3-oxo-4-(prop-2-ynyl)-3,4-dihydro-2H-benzo[b][1,4]oxazin-6-yl)-1,3,5-triazinane-2,4-dione, reference compound] | 23 | 21 | 24 | 20 | 17 | much less injured | much less injured |
| CC(C)N(C)S(=O)(=O)NC(=O)c1cc(-n2c(=O)cc(C(F)(F)F)n(C)c2=O)c(F)cc1Cl [saflufenacil, reference compound] | 10 | 9 | 18 | 20 | 20 | much less injured | much less injured |
| Cc1ccc(NC(=O)N(C)C)cc1Cl [Chlorotoluron, reference compound] | 32 | 29 | 26 | 22 | 18 | much less injured | much less injured |
| CC1=NOC(c2c(Cl)ccc(C3=C(O)c4ncccc4C(C)(C)S3(=O)=O)c2Cl)C1 (stereo not shown) [Coumarone-derivative 6, 7-[2,4-dichloro-3-(3-methyl-4,5-dihydroisoxazol-5-yl)phenyl]-5,5-dimethyl-6,6-dioxo-thiopyrano[4,3-b]pyridin-8-ol] | 2 | 0 | 0 | 4 | 1 | – | – |
| O=S1(=O)Oc2cccnc2C(O)=C1c1c(Cl)cccc1C(F)(F)F [Coumarone-derivative 4, 3-[2-chloro-6-(trifluoromethyl)phenyl]-2,2-dioxo-oxathiino[5,6-b]pyridin-4-ol] | 4 | 7 | 12 | 4 | 0 | – | – |
| COc1ccc(C2=C(O)c3ncccc3C(C)(C)S2(=O)=O)c(C(F)(F)F)n1 [Coumarone-derivative 8, 7-[6-methoxy-2-(trifluoromethyl)-3-pyridyl]-5,5-dimethyl-6,6-dioxo-thiopyrano[4,3-b]pyridin-8-ol] | 10 | 0 | 0 | 3 | 0 | – | – |
| COCCOCc1c(Cl)ccc(C2=C(O)c3ncccc3C(C)(C)S2(=O)=O)c1Cl [Coumarone-derivative 7, 7-[2,4-dichloro-3-(2-methoxyethoxymethyl)phenyl]-5,5-dimethyl-6,6-dioxo-thiopyrano[4,3-b]pyridin-8-ol] | 14 | 6 | 7 | 5 | 0 | – | – |
| N#Cc1ccc(C2=C(O)c3ncccc3N(CC(F)F)S2(=O)=O)c(C(F)(F)F)c1 [Coumarone-derivative 2, 4-[1-(2,2-difluoroethyl)-4-hydroxy-2,2-dioxo-pyrido[3,2-c]thiazin-3-yl]-3-(trifluoromethyl)benzonitrile] | 16 | 7 | 0 | 24 | 0 | – | – |
